Test results published in PubChem BioAssay AID2060620 (Molecular Pharmacology Branch, DTP, NCI, 2025).
pIC50: −log10 of the molar value.

Tested on: 328373-195-R-J1-PDC complex spheroids, viability % test/control
Experiment: Anticancer human tumor 328373-195-R-J1-PDC patient-derived head and neck squamous carcinoma cell line growth inhibition [CLK]
Conditions: for pIC50: curve of first compound; for viability, T/C: stronger effect = lower value
Method in brief: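 Multi-cell-type spheroids combined patient-derived tumor cells with HUVEC endothelial cells and human mesenchymal stem cells. Paired agents were dosed in half-log steps down from about clinical Cmax, or from 10 microM where Cmax was unknown.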

[1] = second compound 0.0316 µM, first compound 0.0316 µM
[2] = second compound 0.0316 µM, first compound 0.1 µM
[3] = second compound 0.0316 µM, first compound 0.316 µM
[4] = second compound 0.0316 µM, first compound 1 µM
[5] = second compound 0.1 µM, first compound 0.0316 µM
[6] = second compound 0.1 µM, first compound 0.1 µM
[7] = second compound 0.1 µM, first compound 0.316 µM
[8] = second compound 0.1 µM, first compound 1 µM
[9] = second compound 0.316 µM, first compound 0.0316 µM
[10] = second compound 0.316 µM, first compound 0.1 µM
[11] = second compound 0.316 µM, first compound 0.316 µM
[12] = second compound 0.316 µM, first compound 1 µM
[13] = second compound 1 µM, first compound 0.0316 µM
[14] = second compound 1 µM, first compound 0.1 µM
[15] = second compound 1 µM, first compound 0.316 µM
[16] = second compound 1 µM, first compound 1 µM
[17] = second compound 3.16 µM, first compound 0.0316 µM
[18] = second compound 3.16 µM, first compound 0.1 µM
[19] = second compound 3.16 µM, first compound 0.316 µM
[20] = second compound 3.16 µM, first compound 1 µM
[21] = second compound 10 µM, first compound 0.0316 µM
[22] = second compound 10 µM, first compound 0.1 µM
[23] = second compound 10 µM, first compound 0.316 µM
[24] = second compound 10 µM, first compound 1 µM
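Also: spheroids exposed to the agents for 7 days.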

Structure (SMILES): CC(=O)O[C@H]1C(=O)[C@@]2(C)[C@H]([C@H](OC(=O)c3ccccc3)[C@]3(O)C[C@H](OC(=O)[C@H](O)[C@@H](NC(=O)c4ccccc4)c4ccccc4)C(C)=C1C3(C)C)[C@]1(OC(C)=O)CO[C@@H]1C[C@@H]2O + CNC(=O)c1ccc(Nc2nc(OC3CCCC3)c3c(-c4ccc5nc(C)oc5c4)c[nH]c3n2)c(OC)c1
- pIC50 (second compound 0.0316 µM): > 7.50
- pIC50 (second compound 0.1 µM): > 7.50
- pIC50 (second compound 0.316 µM): > 7.50
- pIC50 (second compound 1 µM): > 7.50
- pIC50 (second compound 3.16 µM): > 7.50
- pIC50 (second compound 10 µM): > 7.50
- viability, T/C [1]: 11.7%
- viability, T/C [2]: 7.56%
- viability, T/C [3]: 14%
- viability, T/C [4]: 13.7%
- viability, T/C (second compound 0.0316 µM, first compound 3.16 µM): 12.7%
- viability, T/C (second compound 0.0316 µM, first compound 10 µM): 22%
- viability, T/C [5]: 20.2%
- viability, T/C [6]: 22.9%
- viability, T/C [7]: 18.8%
- viability, T/C [8]: 26.1%
- viability, T/C (second compound 0.1 µM, first compound 3.16 µM): 25.2%
- viability, T/C (second compound 0.1 µM, first compound 10 µM): 29.1%
- viability, T/C [9]: 21.1%
- viability, T/C [10]: 23.5%
- viability, T/C [11]: 24.7%
- viability, T/C [12]: 29.3%
- viability, T/C (second compound 0.316 µM, first compound 3.16 µM): 32.1%
- viability, T/C (second compound 0.316 µM, first compound 10 µM): 29.8%
- viability, T/C [13]: 21%
- viability, T/C [14]: 24%
- viability, T/C [15]: 27%
- viability, T/C [16]: 30.8%
- viability, T/C (second compound 1 µM, first compound 3.16 µM): 36.7%
- viability, T/C (second compound 1 µM, first compound 10 µM): 28%
- viability, T/C [17]: 22.2%
- viability, T/C [18]: 27.2%
- viability, T/C [19]: 29.8%
- viability, T/C [20]: 32.7%
- viability, T/C (second compound 3.16 µM, first compound 3.16 µM): 37.1%
- viability, T/C (second compound 3.16 µM, first compound 10 µM): 33.9%
- viability, T/C [21]: 20%
- viability, T/C [22]: 28.6%
- viability, T/C [23]: 30.5%
- viability, T/C [24]: 36.7%
- viability, T/C (second compound 10 µM, first compound 3.16 µM): 42.3%
- viability, T/C (second compound 10 µM, first compound 10 µM): 36%

Structure (SMILES): CCc1c2c(nc3ccc(O)cc13)-c1cc3c(c(=O)n1C2)COC(=O)[C@]3(O)CC + CNC(=O)c1ccc(Nc2nc(OC3CCCC3)c3c(-c4ccc5nc(C)oc5c4)c[nH]c3n2)c(OC)c1
- pIC50 (second compound 0.0316 µM): > 8.50
- pIC50 (second compound 0.1 µM): > 8.50
- pIC50 (second compound 0.316 µM): > 8.50
- pIC50 (second compound 1 µM): > 8.50
- pIC50 (second compound 3.16 µM): > 8.50
- pIC50 (second compound 10 µM): > 8.50
- viability, T/C (second compound 0.0316 µM, first compound 0.00316 µM): 7.71%
- viability, T/C (second compound 0.0316 µM, first compound 0.01 µM): 1.63%
- viability, T/C [1]: 2.84%
- viability, T/C [2]: 0.67%
- viability, T/C [3]: 0.38%
- viability, T/C [4]: 0.09%
- viability, T/C (second compound 0.1 µM, first compound 0.00316 µM): 7.73%
- viability, T/C (second compound 0.1 µM, first compound 0.01 µM): 1.04%
- viability, T/C [5]: 2.54%
- viability, T/C [6]: 0.41%
- viability, T/C [7]: 1.87%
- viability, T/C [8]: 2.57%
- viability, T/C (second compound 0.316 µM, first compound 0.00316 µM): 7.15%
- viability, T/C (second compound 0.316 µM, first compound 0.01 µM): 3.14%
- viability, T/C [9]: 1.9%
- viability, T/C [10]: 0.39%
- viability, T/C [11]: 1.85%
- viability, T/C [12]: 0.68%
- viability, T/C (second compound 1 µM, first compound 0.00316 µM): 5.68%
- viability, T/C (second compound 1 µM, first compound 0.01 µM): 1.49%
- viability, T/C [13]: 1.06%
- viability, T/C [14]: 0.86%
- viability, T/C [15]: 0.2%
- viability, T/C [16]: 1.91%
- viability, T/C (second compound 3.16 µM, first compound 0.00316 µM): 9.03%
- viability, T/C (second compound 3.16 µM, first compound 0.01 µM): 2.69%
- viability, T/C [17]: 1.66%
- viability, T/C [18]: 0.35%
- viability, T/C [19]: 1.13%
- viability, T/C [20]: 1.82%
- viability, T/C (second compound 10 µM, first compound 0.00316 µM): 10.2%
- viability, T/C (second compound 10 µM, first compound 0.01 µM): 1.94%
- viability, T/C [21]: 1.92%
- viability, T/C [22]: 0.95%
- viability, T/C [23]: 2.93%
- viability, T/C [24]: 1.05%
